Details: 101 kPa, Liquid; for electrical conductivity: conductivity meter LF 340 and a standard conductivity cell TetraCon; for mass density: Pycnometric method

C=CCn1cc[n+](CCOC)c1.O=S(=O)([N-]S(=O)(=O)C(F)(F)F)C(F)(F)F
Details | electrical conductivity [S/m] | mass density [kg/m3] | viscosity [mPa·s]
308.7 K | 0.546 | – | –
309 K | – | 1437 | 23.7
313.3 K | 0.627 | – | –
314 K | – | 1432.3 | 20.3
317 K | – | 1429.6 | 17.8
318.1 K | 0.72 | – | –
323.3 K | 0.828 | – | –
323.5 K | – | 1423.5 | 14.6
327.9 K | 0.935 | – | –
328 K | – | 1419.4 | 13.1
332.9 K | 1.06 | – | –
334 K | – | 1413.9 | 11.2
337.6 K | 1.18 | – | –
338.5 K | – | 1409.9 | 10
343 K | 1.33 | – | –
344 K | – | 1404.9 | 8.8
348 K | – | 1401.3 | 8.2
348.1 K | 1.48 | – | –
352 K | 1.6 | – | –
354.2 K | – | 1395.8 | 7

Source: the NIST ThermoML archive (doi:10.1021/je500431h)
